In BindingDB's records for doi:10.1021/jm00117a005 (Sterling-Winthrop Research Institute, 1988):

Target: DNA gyrase (Escherichia coli)
Assay: Gyrase inhibitory activity against Escherichia coli

CN1CCN(c2c(F)cc3c(=O)c(C(=O)O)cn4c3c2OCC42CC2)CC1
IC50: 2670 nM
